What was measured:
rat model = settings: background statement; cited from earlier work
PG-PS-immunized rats = experiment: PG-PS induced rat model of chronic arthritis (Example 1); format: in vivo, Lewis rats
Experimental: Six-week old female Lewis rats are immunized with 15 mg/kg Streptococcal Peptidoglycan-Polysaccharide (PG-PS) administered intraperitoneally (IP). Treatments with anti-inflammatory drugs of interest are commenced two weeks later and continue for 7 days (short-term) to 21 days (long-term). Disease progression is monitored as described below (see Joint Pathology, Clinical Scoring and Bio-Imaging). Blood samples are collected once weekly and processed as described below. At the conclusion of experiments, blood, serum, and organ samples are collected and processed as described herein.
Spleen and lymph node cells are isolated by mechanical pressing of the organ through a 100 µm cell strainer (Corning) in PBS. For isolation of rat synovial infiltrates, hind limbs are freed of skin, bones, and major tendons. The remaining tissue is minced and digested with 0.16 U Liberase TM, 10 µg/mL DNase I, and 60 U hyaluronidase I in RPMI at 37° C. for 1 hour. Blood is collected into heparinized tubes and used directly for blood count determination. For immunophenotyping of blood leukocytes, blood samples are depleted from red blood cells by lysis with ACK buffer (150 mM NH4Cl, 10 mM KHCO3, 0.1 mM EDTA).
Flow cytometry staining is performed as described in Parajuli et al., Int. J. Cancer 126:896-908, 2010, which is hereby incorporated by reference in its entirety. Measurements are performed with a Cytoflex S device (Beckman Coulter) and FACS Symphony (Beckton Dickinson), enabling detection of 13 and 52 fluorescence parameters, respectively, as well as automated absolute cell count determination.
For intracellular cytokine/transcription factor staining, rat and murine T cells are re-stimulated for 4 hours with phorbol 12,13-dibutyrate (PDBu) and ionomycin (50 ng/mL and 500 ng/mL, respectively) in the presence of Golgi Stop (BD Bioscience). In sum, five multicolor antibody panels per species (rat, mouse) are established (blood leukocytes, organ leukocytes, intracellular staining for Th cell subtypes, blood reticulocytes, bone marrow erythropoiesis). Data analysis is performed using FlowJo Software.
(§1) Regular monitoring of arthritis progression in all animal models is accomplished by measuring hind limb ankle joint diameters with a Vernier’s caliper (volume = D × d^2Π/6, D and d are ankle diameters measured in perpendicular axes, D > d). In murine arthritis models, animals are additionally clinically scored with a system assessing swelling and mobility of each animal’s limb, as described in Inglis et al., Arthritis Res. Ther. 8:R113, 2007, which is hereby incorporated by reference in its entirety. Each paw of an experimental animal is assessed separately as follows: 0 - normal, 1 - slight swelling or erythrema, 2 - pronounced swelling, 3 - joint rigidity. The paw scores for each animal are summed giving a maximum of 12 points per mouse. Scoring is performed by a rater blinded to the group assignment.
A rat model of chronic arthritis (PG-PS induced) was used to assess the efficacy of the dual JAK1/2 and ACVR1 inhibitor momelotinib (MMB) in vivo. Two weeks following arthritis induction by immunization with PG-PS, rats were treated with daily oral doses of MMB (5, 10, and 25 mg/kg) or vehicle for 3 weeks.
Consecutive assessment of arthritis was performed by joint thickness measurements and paw scoring. Following 3 weeks of treatment, synovial immune cell infiltration and T cell subset differentiation were quantified by multi-color flow cytometry. Cytokine gene expression was profiled by Real-Time PCR. Anemia was assessed by determination of blood hemoglobin and serum, spleen and liver iron levels.

CAIA DBA/1 mice = experiment: Collagen antibody-induced arthritis (CAIA) in DBA/1 mice (Example 2); format: in vivo
Excerpt: as §1, with “Vernier's” for “Vernier’s”, “animal's” for “animal’s”, “Inglis” left out, “8:[…],” for “8:R113,”, “[…],” for “erythrema,”, “assignment. In order to evaluate efficacy of MMB treatment in a second arthritic animal model, arthritis was induced in DBA/1 mice by intravenous injection of collagen antibody cocktail on day 0 followed by intraperitoneal injection of lipopolysaccharide (LPS) on day 3. […] Comparator controls dexamethasone (1 mg/kg) or the TNF-α inhibitor, etanercept (10 mg/kg) were administered daily by intraperitoneal injection beginning on day 0.” for “assignment.”

[1] = target: T1, Activin Receptor Type 1 (ACVR1) (Homo sapiens, UniProt Q04771); settings: background statement; cited from earlier work
T1 sequence (Q04771 21-509): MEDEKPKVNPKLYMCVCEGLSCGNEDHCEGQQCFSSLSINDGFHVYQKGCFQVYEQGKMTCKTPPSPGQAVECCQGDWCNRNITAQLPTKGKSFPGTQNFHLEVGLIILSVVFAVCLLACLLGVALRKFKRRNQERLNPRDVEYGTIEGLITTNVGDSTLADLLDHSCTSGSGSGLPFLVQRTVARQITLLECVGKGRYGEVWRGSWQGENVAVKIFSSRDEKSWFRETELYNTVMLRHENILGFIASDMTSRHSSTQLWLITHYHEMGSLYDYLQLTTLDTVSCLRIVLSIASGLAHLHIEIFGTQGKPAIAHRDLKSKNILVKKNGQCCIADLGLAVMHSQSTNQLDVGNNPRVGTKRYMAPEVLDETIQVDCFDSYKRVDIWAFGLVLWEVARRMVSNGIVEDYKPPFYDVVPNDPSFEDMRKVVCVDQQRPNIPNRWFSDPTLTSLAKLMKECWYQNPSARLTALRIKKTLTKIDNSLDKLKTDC

PG-PS-immunized RA rats = experiment: PG-PS rat rheumatoid arthritis (RA) model, 3 or 21 days of treatment (Example 3); format: in vivo, Lewis rats
Experimental: Female Lewis rats were immunized with 15 mg/kg Streptococcal Peptidoglycan-Polysaccharide (PG-PS) administered intraperitoneally (IP) to generate a rat model of rheumatoid arthritis. Rats were used to assess the efficacy of the dual JAK1/2 and ACVR1 inhibitor momelotinib (MMB) in vivo. Two weeks following rheumatoid arthritis induction by immunization with PG-PS, rats were treated with daily oral doses of MMB (5, 10, 25 mg/kg) or vehicle for 3 or 21 days.
Statistical significance was determined with one-way ANOVA for RA animals with Bonferroni post-hoc tests (N=5-10 per group, * p < 0.05, ** p < 0.01).
Cytokine gene expression was profiled by Real-Time PCR. For immunophenotyping of blood leukocytes and granulocyte counts were obtained. Anemia was assessed by determination of blood hemoglobin and serum, spleen and liver iron levels.

CAIA BALB/C mice = experiment: CAIA murine rheumatoid arthritis model in BALB/C mice (Example 4); format: in vivo; settings: for mean rear paw rheumatoid arthritis score / mean rear paw thickness / mean total animal rheumatoid arthritis score: beginning on day 6, vs vehicle, MMB 50 mg/kg daily or 30 mg/kg twice daily oral, etanercept 10 mg/kg daily IP
Experimental: BALB/C mice were immunized with 2 mg anti-collagen II antibodies administered intraperitoneally (IP) on day 0 followed by intraperitoneal injection of 100 µg of lipopolysaccharide (LPS) on day 3. Beginning at RA induction, mice were treated orally for the entirety of the study either once daily vehicle, MMB (50 mg/kg), twice daily with MMB (30 mg/kg), or daily intraperitoneally, etanercept (ETA) (10 mg/kg). Consecutive assessment of rheumatoid arthritis was performed by animal and rear paw scoring, and rear paw thickness measurements.

myelofibrosis patients = myelofibrosis patients treated with MMB; background statement; cited from earlier work
[2] = all tested doses (5, 10, 25 mg/kg), vs vehicle in PG-PS animals
[3] = beginning at the lowest tested dose (5 mg/kg)
[4] = daily oral, 3 weeks, flow cytometry
[5] = daily oral, 3 weeks, hind limb ankle joints, flow cytometry
[6] = beginning on day 5, vs vehicle, MMB 50 mg/kg daily or 30 mg/kg twice daily oral, etanercept 10 mg/kg daily IP
[7] = 21 days of treatment, compared to healthy and RA rats
[8] = 21 days of treatment, flow cytometry

Compound: N#CCNC(=O)c1ccc(-c2ccnc(Nc3ccc(N4CCOCC4)cc3)n2)cc1 [MMB, N-(cyanomethyl)-4-(2-(4-morpholinophenylamino)pyrimidin-4-yl)benzamide]
- anemia (rat model): correct anemia
- joint swelling (PG-PS-immunized rats; 25 mg/kg): complete remission
- splenic granulocytes (percentage of splenic CD45+ leukocytes) (PG-PS-immunized rats; 25 mg/kg for 3 weeks, flow cytometry): significant reduction
- mean sum diameter of hind limb joints (PG-PS-immunized rats; 10 and 25 mg/kg daily oral, 3 weeks, caliper on last day of treatment, vs vehicle): significant reduction
- reduction of inflammatory granulocyte infiltration in synovial tissue (PG-PS-immunized rats; [2]): more than 60%
- reduction of macrophage infiltration in synovial tissue (PG-PS-immunized rats; [2]): more than 60%
- arthritogenic Th17 cell differentiation (PG-PS-immunized rats; [3]): effectively decreased
- overall CD4+ T cells in the synovia (PG-PS-immunized rats; [3]): effectively decreased
- swelling and cartilage destruction in arthritic hind limb joints (PG-PS-immunized rats; daily oral, 3 weeks, H&E sections at 10 mg/kg): substantially inhibits
- granulocytes in synovial tissue of hind limb ankle joint pairs (PG-PS-immunized rats; [4]): significantly reduced
- inflammatory CD11b/c+ macrophages in synovial tissue (PG-PS-immunized rats; [4]): significantly reduced
- monocytes in synovial tissue (PG-PS-immunized rats; [4]): significantly reduced
- splenic Th1 cells (PG-PS-immunized rats; [4]): reduced
- splenic Th17 cells (PG-PS-immunized rats; [4]): significant reduction
- splenic Treg cells (PG-PS-immunized rats; [4]): not significantly altered
- synovial CD4+ T cells (PG-PS-immunized rats; [5]): significant reductions
- synovial CD8+ T cells (PG-PS-immunized rats; [5]): significant reductions
- CD4+ T cells in the arthritic ankle synovia (PG-PS-immunized rats; lowest dose tested, 5 mg/kg): Reduction
- RA-associated anemia (PG-PS-immunized rats; rats): substantial improvement
- circulating hepcidin levels (PG-PS-immunized rats; rats): reduced
- systemic iron (PG-PS-immunized rats; rats): mobilized
- mean rear paw thickness (CAIA DBA/1 mice; 20 mg/kg daily oral, days 7 and 12, vs vehicle): reduction
- arthritis scoring versus the TNF-α inhibitor etanercept (CAIA DBA/1 mice; CAIA model, DBA/1 mice): non-inferiority
- mean rear paw arthritis score (CAIA DBA/1 mice; [6]): significant reduction
- mean rear paw thickness (CAIA DBA/1 mice; [6]): significant reduction
- mean total arthritis score (CAIA DBA/1 mice; [6]): significant reduction
- inhibition of ACVR1 [1]: potent inhibition
- blood granulocyte counts (PG-PS-immunized RA rats; 3 days of treatment): significantly decreases
- blood leukocyte counts (PG-PS-immunized RA rats; 3 days of treatment): significantly decreases
- spleen and liver cytokine expression (PG-PS-immunized RA rats; 3 days of treatment, Real-Time PCR): significantly decreases
- cartilage damage (PG-PS-immunized RA rats; 21 days of treatment, H&E-stained hind limb joint sections): alleviates
- anemia (PG-PS-immunized RA rats; [7]): corrects
- hepcidin (PG-PS-immunized RA rats; [7]): decreases
- hind limb joint swelling (PG-PS-immunized RA rats; 21 days of treatment, figure shows 10 mg/kg): reduces
- CD4+ T cell infiltration in hind-limb synovial tissue (PG-PS-immunized RA rats; [8]): significantly reduces
- CD8+ T cell infiltration in hind-limb synovial tissue (PG-PS-immunized RA rats; [8]): significantly reduces
- differentiation of splenic Th17 cells (PG-PS-immunized RA rats; [8]): inhibits
- infiltration of macrophages in hind limb synovia (PG-PS-immunized RA rats; [8]): reduces
- infiltration of neutrophils in hind limb synovia (PG-PS-immunized RA rats; [8]): reduces
- regulatory Treg cells (PG-PS-immunized RA rats; [8]): without affecting
- splenic Th1 cells (PG-PS-immunized RA rats; [8]): without affecting
- iron availability (PG-PS-immunized RA rats; rat PG-PS model): improves
- rheumatoid arthritis scoring versus the TNF-α inhibitor etanercept (CAIA BALB/C mice; CAIA model, BALB/C mice): non-inferiority
- mean rear paw rheumatoid arthritis score (CAIA BALB/C mice): significant reduction
- mean rear paw thickness (CAIA BALB/C mice): significant reduction
- mean total animal rheumatoid arthritis score (CAIA BALB/C mice): significant reduction
- anti-arthritic effectiveness compared with etanercept (CAIA BALB/C mice; murine CAIA RA model): at least equally effective
- anemia benefit (myelofibrosis patients): clinically reproduced

Compound: etanercept [reference compound]
- mean rear paw arthritis score (CAIA DBA/1 mice; [6]): significant reduction
- mean rear paw thickness (CAIA DBA/1 mice; [6]): significant reduction
- mean total arthritis score (CAIA DBA/1 mice; [6]): significant reduction
- mean rear paw rheumatoid arthritis score (CAIA BALB/C mice): significant reduction
- mean rear paw thickness (CAIA BALB/C mice): significant reduction
- mean total animal rheumatoid arthritis score (CAIA BALB/C mice): significant reduction
